Consider one compound from patent US8138158B2, “Compositions and methods for therapy for diseases characterized by defective chloride transport” (Children's Hospital & Research Center at Oakland, priority 1997, dated 2012).

The test has as its system wildtype CFTR-corrected CF15 monolayers. In words: Short-circuit current across wildtype CFTR-corrected CF15 monolayers. It counts as cell-based, human. As for the experimental part:
Human airway cell culture. The human submucosal serous gland-like cell line Calu-3, the CF nasal epithelial cell line homozygous for ΔF508 CFTR (CF15) and human tracheal primary cultures (hTE) were cultured as described (Jefferson, D. M., Valentich, J. D., Marini, F. C., Grubman, S. A., Iannuzzi, M. C., Dorkin, H. L., Li, M., Klinger, K. W. & Welsh, M. J. (1990) Am. J. Physiol. 259, L496-L505. Sachs, L. A., Finkbeiner, W. E. & Widdicombe, J. H. (2003) In Vitro Cell Dev. Biol. Anim. 39, 56-62.). Wildtype CFTR-corrected CF15 cells were generated via adenovirus-mediated gene transfer. Growth media were nominally free of ascorbic acid (<10 μm, University Pathology Inc., Salt Lake City, Utah). For transepithelial measurements cells were grown on permeable filter inserts and used after 3 to 10 days.
Short-circuit current measurement. Calu-3 or CF15 cells were grown as monolayers, mounted in Ussing chambers and short-circuit current (ISC) was recorded as described (Illek, B. & Fischer, H. (1998) Am. J. Physiol. 275, L902-L910). At 20-50 second intervals, transepithelial voltage was clamped from zero to 2 mV and the transepithelial resistance (Rte) was calculated. A serosa-to-mucosa-directed Cl gradient was applied. Serosal Ussing chamber solution contained (in mM): 120 NaCl, 20 NaHCO3, 5 KHCO3, 1.2 NaH2PO4, 5.6 glucose, 2.5 CaCl2, 1.2 MgCl2. In mucosal Ussing chamber solutions, all Cl salts were exchanged for gluconate salts.
The CF15 cell line was used to determine whether ascorbate-stimulated Cl currents were solely mediated by the CFTR Cl conductance. The CF15 cell line is characterized by the absence of functional CFTR in the apical plasma membrane but the presence of other non-CFTR Cl conductances (Jefferson, D. M., Valentich, J. D., Marini, F. C., Grubman, S. A., Iannuzzi, M. C., Dorkin, H. L., Li, M., Klinger, K. W. & Welsh, M. J. (1990) Am. J. Physiol. 259, L496-L505). A concentration of L-ascorbic acid that lay within the upper plateau of the dose response curve (500 μm) was applied and ascorbate-stimulated Cl currents in CF15 vs. wildtype CFTR-corrected CF15 monolayers was compared (FIG. 23A). […] The defective response to L-ascorbic acid was reversed in wildtype CFTR-corrected CF15 epithelia such that ISC responded promptly to L-ascorbic acid (ΔISC=7.5±0.5 μA/cm^2, n=6). The ascorbate-stimulated current was further activated by the cAMP agonist forskolin and total stimulated ISC averaged 12.1±1.1 μA/cm^2 (FIG. 4B). The ascorbate-stimulated Cl current reached 60±15% of the forskolin-stimulated current in CFTR-corrected CF15 monolayers, which was close to the corresponding findings in Calu-3 monolayers (68%, see FIG. 21A). The absence of ascorbate-stimulated Cl currents in CF15 monolayers supports the notion that non-CFTR Cl conductances were not activated by L-ascorbic acid.
In this example, chloride currents stimulated by L-ascorbate or D-ascorbate were measured in CF15 versus. wildtype CFTR-corrected CF15 monolayers. A concentration of L-ascorbate (1 mM) or D-isoascorbate (300 μm) that lay within the upper plateau of the dose-response curve was applied to cells and the resulting chloride currents stimulated in CF15 versus wildtype CFTR-corrected CF15 monolayers were measured (FIG. 25 A-H). All experiments were performed in the presence of the sodium channel blocker amiloride. […]

Molecules are shown by their SMILES.

For the compound `O=C1O[C@H](C(O)CO)C(O)=C1O` (stereo partly drawn) [L-ascorbic acid, L-xyloascorbic acid], the “ascorbate-stimulated Cl current, % of the forskolin-stimulated current” value is reported as 60±15%. The ΔIsc (L-ascorbate 1 mM, amiloride, n=6) worked out at 7.5±0.5 μA/cm2. Further, the ΔISC (L-ascorbic acid 500 μm, n=6) came out at 7.5±0.5 μA/cm^2.
